“And” between values parts separate entries of the source, which are not always exact repeats. Identical values can stand only once. Toxic doses and inconclusive results are not listed. The calls were made as follows: active = survival T/C of 150% or more; inactive = T/C below 125% in these data.
Test system: P388 leukemia ip, CD2F1 mice, survival T/C
Assay: NCI In Vivo Anticancer Drug Screen. Data for tumor model P388 Leukemia (intraperitoneal) in CD2F1 (CDF1) mice
Conditions: endpoint: median survival time, higher = longer survival
Outline: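 Mice carrying the transplanted tumor received test compound or vehicle. Survival was recorded in each group, and the value is the treated-group measurement divided by that of the vehicle-treated control group.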

[1] = dose: 100.0 mg/kg/injection, schedule: Q01DX001 (ip), vehicle: saline with Tween-80
[2] = dose: 200.0 mg/kg/injection, schedule: Q01DX001 (ip), vehicle: saline with Tween-80
[3] = dose: 400.0 mg/kg/injection, schedule: Q01DX001 (ip), vehicle: saline with Tween-80
[4] = dose: 50.0 mg/kg/injection, schedule: Q01DX005 (ip), vehicle: saline with Tween-80
[5] = dose: 200.0 mg/kg/injection, schedule: Q01DX005 (ip), vehicle: saline with Tween-80
[6] = dose: 50.0 mg/kg/injection, schedule: Q01DX005 (ip), vehicle: Klucel (hydroxypropylcellulose) (HPC)
[7] = dose: 100.0 mg/kg/injection, schedule: Q01DX005 (ip), vehicle: Klucel (hydroxypropylcellulose) (HPC)
[8] = dose: 200.0 mg/kg/injection, schedule: Q01DX005 (ip), vehicle: Klucel (hydroxypropylcellulose) (HPC)
[9] = dose: 100.0 mg/kg/injection, schedule: Q01DX005 (ip), vehicle: saline with Tween-80
[10] = dose: 6.25 mg/kg/injection, schedule: Q01DX009 (ip), vehicle: saline with Tween-80
[11] = dose: 12.5 mg/kg/injection, schedule: Q01DX009 (ip), vehicle: saline with Tween-80
[12] = dose: 25.0 mg/kg/injection, schedule: Q01DX009 (ip), vehicle: saline with Tween-80

Measured: T/C

CS(=O)(=O)NC(=O)NC(=S)c1ccco1
inactive: [1] 105 % of control | [2] 102 % of control | [3] 97 % of control

COc1cc(Br)c(CC(=O)c2ccc3c(c2)OCO3)cc1OC
inactive: [4] 86 % of control | [5] 87 % of control

Cc1nn2c(-c3ccccc3)cnnc2c1-c1ccccc1
inactive: [6] 101 % of control | [7] 98 % of control | [8] 96 % of control

CC1=C/C(=N/OS(=O)(=O)c2ccc(C)cc2)CC(C)(C)C1
inactive: [4] 101 % of control | [9] 92 % of control | [5] 117 % of control

COC(=O)/C=C\C(C)=C/C(=O)OC
inactive: [6] 100 % of control | [7] 99 % of control | [8] 99 % of control

C=C1[C@@H]2CC[C@@]3([C@@H](C2)[C@@]24CCC[C@@]5(C)CN(CCO)[C@@H]2O[C@@H]3C[C@H]54)[C@@H]1O
inactive: dose: 2.0 mg/kg/injection, schedule: Q01DX009 (ip), vehicle: Klucel (hydroxypropylcellulose) (HPC) 97 % of control | dose: 4.0 mg/kg/injection, schedule: Q01DX009 (ip), vehicle: Klucel (hydroxypropylcellulose) (HPC) 97 % of control | dose: 8.0 mg/kg/injection, schedule: Q01DX009 (ip), vehicle: Klucel (hydroxypropylcellulose) (HPC) 98 % of control | dose: 16.0 mg/kg/injection, schedule: Q01DX009 (ip), vehicle: Klucel (hydroxypropylcellulose) (HPC) 94 % of control

O=c1c(O)c(O)c1=O.[NH2-].[NH2-].[NH2-].[NH2-].[NH2-].[Ru+5]
inactive: dose: 10.56 mg/kg/injection, schedule: Q04DX002 (ip), vehicle: suspension in saline 121 % of control

CCOC(=O)CC1(C)c2nc(NC(C)=O)sc2Cc2sc(NC(C)=O)nc21
inactive: dose: 60.0 mg/kg/injection, schedule: Q01DX005 (ip), vehicle: saline 101 % of control | dose: 120.0 mg/kg/injection, schedule: Q01DX005 (ip), vehicle: saline 100 % of control | dose: 240.0 mg/kg/injection, schedule: Q01DX005 (ip), vehicle: saline 100 % of control

O=C1C=CC2OC(c3ccccc3)C(O)C2O1 (stereo unspecified)
inactive: dose: 3.12 mg/kg/injection, schedule: Q01DX005 (ip), vehicle: DMSO 98 % of control | dose: 6.25 mg/kg/injection, schedule: Q01DX005 (ip), vehicle: DMSO 107 % of control | dose: 6.25 mg/kg/injection, schedule: Q01DX005 (ip), vehicle: saline with Tween-80 110 % of control and 118 % of control (2×) | dose: 6.25 mg/kg/injection, schedule: Q01DX009 (ip), vehicle: distilled water + Tween-80 + alcohol 98 % of control | dose: 12.5 mg/kg/injection, schedule: Q01DX005 (ip), vehicle: DMSO 116 % of control | dose: 12.5 mg/kg/injection, schedule: Q01DX005 (ip), vehicle: saline with Tween-80 103 % of control (2×) and 117 % of control | dose: 12.5 mg/kg/injection, schedule: Q01DX009 (ip), vehicle: distilled water + Tween-80 + alcohol 109 % of control | dose: 25.0 mg/kg/injection, schedule: Q01DX005 (ip), vehicle: DMSO 122 % of control | dose: 25.0 mg/kg/injection, schedule: Q01DX005 (ip), vehicle: saline with Tween-80 109 % of control (2×) and 118 % of control | dose: 25.0 mg/kg/injection, schedule: Q01DX009 (ip), vehicle: distilled water + Tween-80 + alcohol 118 % of control | dose: 30.0 mg/kg/injection, schedule: Q01DX009 (ip), vehicle: DMSO 113 % of control | [4] 107 % of control

CCCCn1nnc2cc(-c3c(N)nc(N)nc3CC)ccc21
inactive: [6] 87 % of control | [7] 89 % of control | [8] 89 % of control

O=C(NC(CCSSCCC(NC(=O)OCc1ccccc1)C(=O)O)C(=O)O)OCc1ccccc1 (stereo unspecified)
inactive: dose: 12.5 mg/kg/injection, schedule: Q01DX009 (ip), vehicle: other 98 % of control | dose: 25.0 mg/kg/injection, schedule: Q01DX009 (ip), vehicle: other 98 % of control | dose: 50.0 mg/kg/injection, schedule: Q01DX009 (ip), vehicle: other 101 % of control | dose: 100.0 mg/kg/injection, schedule: Q01DX009 (ip), vehicle: other 100 % of control | dose: 200.0 mg/kg/injection, schedule: Q01DX009 (ip), vehicle: other 103 % of control

c1ccc(C2SCCN2c2ccccc2)cc1 (stereo unspecified)
inactive: dose: 50.0 mg/kg/injection, schedule: Q01DX009 (ip), vehicle: saline 91 % of control | dose: 100.0 mg/kg/injection, schedule: Q01DX009 (ip), vehicle: saline 90 % of control | dose: 200.0 mg/kg/injection, schedule: Q01DX009 (ip), vehicle: saline 89 % of control

CC(=O)O[C@H]1[C@@H](C(C)C)CC[C@@]2(C)[C@H](Br)CC[C@@](C)(O)[C@H]12
inactive: dose: 20.0 mg/kg/injection, schedule: Q01DX005 (ip), vehicle: other 105 % of control | dose: 40.0 mg/kg/injection, schedule: Q01DX005 (ip), vehicle: other 105 % of control | dose: 80.0 mg/kg/injection, schedule: Q01DX005 (ip), vehicle: other 105 % of control

O=C1CC2COc3ccc(O)cc3C2=NN1c1ccccc1 (stereo unspecified)
inactive: [4] 94 % of control | [9] 98 % of control | [5] 94 % of control

Cc1ccc2c(c1)-c1nc3nnnn3nc1C(C)(C)O2
inactive: dose: 60.0 mg/kg/injection, schedule: Q01DX005 (ip), vehicle: saline with Tween-80 92 % of control | dose: 120.0 mg/kg/injection, schedule: Q01DX005 (ip), vehicle: saline with Tween-80 95 % of control | dose: 240.0 mg/kg/injection, schedule: Q01DX005 (ip), vehicle: saline with Tween-80 98 % of control

Brc1cc(Br)c2ccccc2c1OCC1CO1 (stereo unspecified)
inactive: dose: 12.5 mg/kg/injection, schedule: Q01DX009 (ip), vehicle: Klucel (hydroxypropylcellulose) (HPC) 106 % of control and 95 % of control | dose: 25.0 mg/kg/injection, schedule: Q01DX009 (ip), vehicle: Klucel (hydroxypropylcellulose) (HPC) 106 % of control | dose: 50.0 mg/kg/injection, schedule: Q01DX009 (ip), vehicle: Klucel (hydroxypropylcellulose) (HPC) 88 % of control and 89 % of control and 95 % of control | dose: 200.0 mg/kg/injection, schedule: Q01DX009 (ip), vehicle: Klucel (hydroxypropylcellulose) (HPC) 91 % of control

CCOC(=O)NC(NC(=O)OCC)c1ccccc1[N+](=O)[O-]
inactive: dose: 100.0 mg/kg/injection, schedule: Q04DX003 (ip), vehicle: saline 99 % of control | dose: 200.0 mg/kg/injection, schedule: Q04DX003 (ip), vehicle: saline 99 % of control | dose: 400.0 mg/kg/injection, schedule: Q04DX003 (ip), vehicle: saline 89 % of control

COC(=O)NN(C(=O)OC)C12CCCCC1N(C(=O)OC)N(C(=O)OC)c1ccccc12 (stereo unspecified)
inactive: dose: 100.0 mg/kg/injection, schedule: Q01DX001 (ip), vehicle: Klucel (hydroxypropylcellulose) (HPC) 103 % of control | dose: 200.0 mg/kg/injection, schedule: Q01DX001 (ip), vehicle: Klucel (hydroxypropylcellulose) (HPC) 98 % of control | dose: 400.0 mg/kg/injection, schedule: Q01DX001 (ip), vehicle: Klucel (hydroxypropylcellulose) (HPC) 100 % of control

O=C1C=CC(=O)N1c1cccc2c1CCCC2
inactive: [10] 105 % of control | [11] 114 % of control

c1ccc2c3c(ccc2c1)OCCOCCOCCOc1ccc2ccccc2c1-3
inactive: [1] 98 % of control | [2] 92 % of control | [3] 87 % of control

Cc1cn(O)cc(C)c1=N
inactive: [11] 100 % of control | [12] 100 % of control | dose: 50.0 mg/kg/injection, schedule: Q01DX009 (ip), vehicle: saline with Tween-80 108 % of control

N#C/C(=C1/NC(=O)c2ccccc21)c1nc2ccccc2n1CCO
inactive: [10] 91 % of control | [11] 92 % of control | [12] 89 % of control | dose: 200.0 mg/kg/injection, schedule: Q01DX009 (ip), vehicle: saline with Tween-80 89 % of control

Source: PubChem BioAssay AID330 (DTP/NCI, 2004)
